The subject of one data set is Caco-2 cell monolayers. Description: Transport across Caco-2 cell monolayers (A-B and B-A directions). The conditions noted are these: mixture of Shaoyao-Gancao extract vs. Gancao extract; 22 μM.
Test in data set [1]: as above
Procedure: Cells were cultured in a humidified atmosphere of 5% CO2 and 95% air at 37 °C. The Dulbecco’s modified Eagle’s medium was supplemented with 10% (v/v) fetal bovine serum, 1% nonessential amino acids, 100 U/mL penicillin, and 100 µg/mL streptomycin. When the cell culture reached 80% confluence, it was rinsed with phosphate-buffered saline and split using trypsin. For transport experiments, the cells were seeded on 3 μm porous polycarbonate cell culture inserts from Nunc, which has a surface area of 4.2 cm^2 at a density of 2,500,000 cells/cm^2. The culture media was replaced every other day. The monolayers were ready for experiments from 19 to 22 days after seeding. Well-developed Caco-2 cell monolayers with transepithelial electrical resistance (TEER) values greater than 400 Ω × cm^2 were used for the experiment.
Paeoniflorin, glycyrrhizic acid, and liquiritin were dissolved in dimethyl sulfoxide (DMSO)-ethanol (v/v = 1/1) to prepare the stock solution (10 mM) for each single compound. The above-mentioned solutions were further diluted with Hank’s balanced salt solution (HBSS, pH = 7.4) to obtain a series of working standard solutions, and the final concentrations of paeoniflorin, glycyrrhizic acid, or liquiritin in the transport samples were 50 µM, 20 µM, or 50 µM, respectively. Moreover, the final concentrations of the organic solvent of different samples were controlled below 0.5% to ensure the safety to the cells.
Dry Shaoyao (100 g) or Gancao (100 g) herb materials were extracted twice with boiling water for 1 h each time, and the solutions were filtered through gauze. Then, the filtrates were merged and concentrated to 100 mL as the Shaoyao extract (1 g/mL) containing paeoniflorin (22.41 mg/mL) or Gancao extract (1 g/mL) containing glycyrrhizic acid (16.35 mg/mL) and liquiritin (22.38 mg/mL). Subsequently, the single extract or mixed extract was dissolved in HBSS (pH = 7.4) to obtain a series of working standard solutions, and the final concentrations of paeoniflorin, glycyrrhizic acid, or liquiritin in the transport samples were 50 µM, 22 µM, or 54 µM, respectively. In addition, the ratio of Shaoyao and Gancao in the mixed extract was 1:1. Meanwhile, testosterone (internal standard) was dissolved in acetonitrile with acetic acid (v/v = 94/6) to 100 µM. In addition, verapamil was dissolved in water to 5 mM when it was used.
The cell monolayers were washed three times with 37 °C HBSS (pH 7.4). The monolayers were incubated with the buffer for 1 h, and the incubation medium was then aspirated. Afterwards, a single component or extract solution was loaded on the apical or basolateral side. When the transport inhibitor (verapamil) was used, it was loaded only at the donor side. The amounts of transported drugs in the receiver media were determined by ultra-performance liquid chromatography (UPLC). In the test for each solution, four donor samples (400 μL) and four receiver samples (400 μL) were taken at time intervals of 1, 2, 3, and 4 h, followed by an immediate replacement with fresh donor solution (400 μL) to the donor side or fresh buffer (400 μL) to the receiver side.
To each transport sample (400 μL), 100 μL of acetonitrile containing 100 μM of testosterone was added as an internal standard and a preservative. The resulting mixture was vortexed for 30 s and then centrifuged at 15,000 rpm for 15 min, and the supernatant obtained was analyzed by UPLC.
UPLC was used to determine the concentration of the compounds in the transport samples.
The conditions noted are these: human; for Papp A→B at 4 h: Caco-2, pH 7.4; for efflux ratio at 4 h: Caco-2, pH 7.4, Efflux ratio PBA/PAB; for Papp at 4 h: mean ± SD, n = 3.

A further data set has as its target P-glycoprotein (P-gp) (Homo sapiens, UniProt P08183). The note with it: Caco-2, 4 h, 50 µM, pH 7.4. An excerpt:
To determine whether P-gp is involved in the transport of these compounds, their transports were studied in the presence of verapamil, a known inhibitor for P-gp.
All data were presented as means ± SD. […] Results were considered significant at p < 0.05.

Where [2] appears, read: single component solution, paeoniflorin 50 μM, glycyrrhizic acid 20 μM, liquiritin 50 μM.
Setting [3] is: Caco-2, pH 7.4, Papp PAB, in the mixture of Shaoyao-Gancao extract (1:1), paeoniflorin 50 μM, glycyrrhizic acid 22 μM, liquiritin 54 μM.
Where [4] appears, read: Caco-2, pH 7.4, Papp PAB, paeoniflorin in Shaoyao extract (50 μM), glycyrrhizic acid (22 μM) and liquiritin (54 μM) in Gancao extract.
[5] abbreviates: Caco-2, pH 7.4, Papp PBA (secretary permeability), single component solution, paeoniflorin 50 μM, glycyrrhizic acid 20 μM, liquiritin 50 μM, HBSS pH 7.4.
Where [6] appears, read: Caco-2, pH 7.4, Papp PBA, in the mixture of Shaoyao-Gancao extract (1:1), paeoniflorin 50 μM, glycyrrhizic acid 22 μM, liquiritin 54 μM.
Setting [7] is: Caco-2, pH 7.4, Papp PBA, paeoniflorin in Shaoyao extract (50 μM), glycyrrhizic acid (22 μM) and liquiritin (54 μM) in Gancao extract.

The structures appear in SMILES notation. Bounds are passed on as bounds.

P-glycoprotein (P-gp), sequence (P08183 whole entry): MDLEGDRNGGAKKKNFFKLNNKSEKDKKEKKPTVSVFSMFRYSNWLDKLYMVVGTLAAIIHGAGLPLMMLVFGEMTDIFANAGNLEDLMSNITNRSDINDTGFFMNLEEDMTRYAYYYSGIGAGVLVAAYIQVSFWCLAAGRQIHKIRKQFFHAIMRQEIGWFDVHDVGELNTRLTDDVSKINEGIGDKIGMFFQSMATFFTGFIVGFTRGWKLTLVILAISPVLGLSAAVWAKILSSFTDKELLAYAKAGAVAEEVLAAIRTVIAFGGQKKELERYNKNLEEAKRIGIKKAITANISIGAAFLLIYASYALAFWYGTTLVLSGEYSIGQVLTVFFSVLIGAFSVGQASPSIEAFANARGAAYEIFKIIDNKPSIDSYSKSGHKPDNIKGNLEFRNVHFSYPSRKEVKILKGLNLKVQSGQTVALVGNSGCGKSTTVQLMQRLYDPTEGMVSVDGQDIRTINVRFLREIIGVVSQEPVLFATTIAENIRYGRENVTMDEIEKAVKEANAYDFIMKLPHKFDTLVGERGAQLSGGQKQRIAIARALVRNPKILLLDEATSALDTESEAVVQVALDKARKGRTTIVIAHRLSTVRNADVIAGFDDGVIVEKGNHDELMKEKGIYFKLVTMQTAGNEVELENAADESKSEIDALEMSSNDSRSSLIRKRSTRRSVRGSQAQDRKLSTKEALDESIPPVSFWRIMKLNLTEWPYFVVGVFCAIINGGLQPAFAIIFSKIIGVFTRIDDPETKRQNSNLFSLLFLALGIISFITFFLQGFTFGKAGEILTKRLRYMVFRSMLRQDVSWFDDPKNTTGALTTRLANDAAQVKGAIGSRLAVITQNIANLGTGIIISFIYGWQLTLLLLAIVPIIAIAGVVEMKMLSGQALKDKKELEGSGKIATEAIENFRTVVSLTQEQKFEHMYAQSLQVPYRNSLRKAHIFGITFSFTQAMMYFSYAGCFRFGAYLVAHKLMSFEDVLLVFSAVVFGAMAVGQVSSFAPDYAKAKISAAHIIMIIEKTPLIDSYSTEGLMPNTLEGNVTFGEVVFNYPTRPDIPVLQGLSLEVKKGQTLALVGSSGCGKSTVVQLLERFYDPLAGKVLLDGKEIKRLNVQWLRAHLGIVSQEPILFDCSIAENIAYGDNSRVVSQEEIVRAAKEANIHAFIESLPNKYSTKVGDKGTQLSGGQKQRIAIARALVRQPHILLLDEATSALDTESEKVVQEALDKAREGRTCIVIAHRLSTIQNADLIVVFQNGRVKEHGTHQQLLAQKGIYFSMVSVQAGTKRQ

On to `CC1(C)[C@@H](O[C@H]2O[C@H](C(=O)O)[C@@H](O)[C@H](O)[C@H]2O[C@@H]2O[C@H](C(=O)O)[C@@H](O)[C@H](O)[C@H]2O)CC[C@]2(C)[C@H]3C(=O)C=C4[C@@H]5C[C@@](C)(C(=O)O)CC[C@]5(C)CC[C@@]4(C)[C@]3(C)CC[C@@H]12` [Glycyrrhizic acid], for which the “Increase of PAB in the mixture compared to PAB in the Gancao extract” value in the data set on Caco-2 cell monolayers is on record as “over two times”. This molecule also registered a Papp A→B at 4 h in data set [1] of 0.36 ± 0.04 ×10⁻⁶ cm/s. The efflux ratio at 4 h, 22 µM in data set [1] (Caco-2, pH 7.4, Decrease of efflux ratio in the mixture compared to the Gancao extract, mixture of Shaoyao-Gancao extract vs. Gancao extract, 22 μM) was above 1. The efflux ratio at 4 h in data set [1] (setting [2]) stood at 2.31. Moreover, the Papp at 4 h is 1.17 ± 0.08 ×10⁻⁶ cm/s in data set [1] (setting [3]); 0.41 ± 0.05 ×10⁻⁶ cm/s in data set [1] (setting [4]); 0.83 ± 0.07 ×10⁻⁶ cm/s in data set [1] (setting [5]); 1.21 ± 0.06 ×10⁻⁶ cm/s in data set [1] (setting [6]); 0.89 ± 0.04 ×10⁻⁶ cm/s in data set [1] (setting [7]).

Regarding `O=C1C[C@@H](c2ccc(O[C@@H]3O[C@H](CO)[C@@H](O)[C@H](O)[C@H]3O)cc2)Oc2cc(O)ccc21` [Liquiritin], the Papp A→B at 4 h in data set [1] stood at 0.73 ± 0.04 ×10⁻⁶ cm/s. The efflux ratio at 4 h in data set [1] (setting [2]) came out at 2.15. Also, the Papp at 4 h amounted to 1.31 ± 0.06 ×10⁻⁶ cm/s in data set [1] (setting [3]); 1.2 ± 0.06 ×10⁻⁶ cm/s in data set [1] (setting [4]); 1.57 ± 0.05 ×10⁻⁶ cm/s in data set [1] (setting [5]); 1.58 ± 0.04 ×10⁻⁶ cm/s in data set [1] (setting [6]); 1.59 ± 0.02 ×10⁻⁶ cm/s in data set [1] (setting [7]). Also, on P-glycoprotein (P-gp), the “Decrease in the efflux ratio after addition of verapamil” value is reported as 60.47%.

In data set [1], `C[C@@]12C[C@@]3(O)O[C@@H](O1)[C@]1(COC(=O)c4ccccc4)[C@H]3C[C@@]12O[C@@H]1O[C@H](CO)[C@@H](O)[C@H](O)[C@H]1O` [Paeoniflorin] showed a Papp A→B at 4 h of 0.61 ± 0.09 ×10⁻⁶ cm/s. The efflux ratio at 4 h in data set [1] (setting [2]) is 2.1. The Papp at 4 h turned out to be 1.96 ± 0.08 ×10⁻⁶ cm/s in data set [1] (setting [3]); 0.94 ± 0.11 ×10⁻⁶ cm/s in data set [1] (setting [4]); 1.28 ± 0.05 ×10⁻⁶ cm/s in data set [1] (setting [5]); 1.77 ± 0.07 ×10⁻⁶ cm/s in data set [1] (setting [6]); 1.3 ± 0.02 ×10⁻⁶ cm/s in data set [1] (setting [7]). The “Decrease in the efflux ratio after addition of verapamil” value on P-glycoprotein (P-gp) was 54.29%.

The values above are taken from PMC6268140, “Absorption and Interaction of the Main Constituents from the Traditional Chinese Drug Pair Shaoyao-Gancao via a Caco-2 Cell Monolayer Model” (Molecules, 2012).
